Reference: ChEMBL document CHEMBL3797068, “eCF309: a potent, selective and cell-permeable mTOR inhibitor” (Medchemcomm, 2016)
pEC50, pIC50: −log10 of the molar value. Active and inactive are the calls of the source. No cut-off for these calls is given here.

Tests used:
[1] = tested on: MCF7; assay: Cytotoxicity against human MCF7 cells after 5 days by Presto blue reagent-based fluorescence analysis; type: functional, cell-based; settings: for pEC50: MCF7, 120 h
[2] = target: T1, Phosphatidylinositol 4,5-bisphosphate 3-kinase catalytic subunit delta isoform (Homo sapiens, UniProt O00329); assay: Inhibition of PI3Kdelta (unknown origin) using (poly [Glu, Tyr] 4:1) as substrate assessed as incorporation of 33P in substrate by [gamma33P] ATP-based kinase assay
T1 sequence (O00329 whole entry): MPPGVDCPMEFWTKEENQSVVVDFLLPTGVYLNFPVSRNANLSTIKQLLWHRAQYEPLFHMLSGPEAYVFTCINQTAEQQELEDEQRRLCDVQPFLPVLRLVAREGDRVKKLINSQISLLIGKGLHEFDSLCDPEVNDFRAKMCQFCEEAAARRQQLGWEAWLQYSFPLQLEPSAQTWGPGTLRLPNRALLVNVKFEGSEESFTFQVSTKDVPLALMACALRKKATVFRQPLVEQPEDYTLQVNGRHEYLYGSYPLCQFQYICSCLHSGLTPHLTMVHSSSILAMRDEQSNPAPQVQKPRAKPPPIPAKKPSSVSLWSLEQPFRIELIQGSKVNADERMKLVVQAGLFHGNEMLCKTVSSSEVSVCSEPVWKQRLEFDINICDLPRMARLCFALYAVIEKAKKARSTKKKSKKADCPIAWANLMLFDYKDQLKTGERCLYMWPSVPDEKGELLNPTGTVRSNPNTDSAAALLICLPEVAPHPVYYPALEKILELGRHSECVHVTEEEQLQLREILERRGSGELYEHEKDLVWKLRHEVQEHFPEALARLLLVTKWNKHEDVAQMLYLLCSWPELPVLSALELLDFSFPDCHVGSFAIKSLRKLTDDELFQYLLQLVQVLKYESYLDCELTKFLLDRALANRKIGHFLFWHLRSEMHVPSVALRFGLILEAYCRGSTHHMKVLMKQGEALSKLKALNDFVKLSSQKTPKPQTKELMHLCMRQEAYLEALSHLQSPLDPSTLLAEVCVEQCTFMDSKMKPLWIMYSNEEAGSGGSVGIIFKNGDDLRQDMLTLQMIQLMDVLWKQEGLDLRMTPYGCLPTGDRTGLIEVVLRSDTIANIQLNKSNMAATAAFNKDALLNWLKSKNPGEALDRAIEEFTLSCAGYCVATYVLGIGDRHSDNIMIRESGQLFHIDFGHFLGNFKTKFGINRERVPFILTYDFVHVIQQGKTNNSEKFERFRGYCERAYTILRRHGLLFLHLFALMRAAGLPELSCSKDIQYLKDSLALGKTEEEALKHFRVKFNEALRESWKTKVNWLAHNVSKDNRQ

[3] = target: Tyrosine-protein kinase Fyn (Homo sapiens, UniProt P06241); assay: Inhibition of human FYN using (poly [Glu, Tyr] 4:1) as substrate assessed as incorporation of 33P in substrate by [gamma33P] ATP-based kinase assay
Sequence of Tyrosine-protein kinase Fyn (P06241 whole entry, canonical isoform): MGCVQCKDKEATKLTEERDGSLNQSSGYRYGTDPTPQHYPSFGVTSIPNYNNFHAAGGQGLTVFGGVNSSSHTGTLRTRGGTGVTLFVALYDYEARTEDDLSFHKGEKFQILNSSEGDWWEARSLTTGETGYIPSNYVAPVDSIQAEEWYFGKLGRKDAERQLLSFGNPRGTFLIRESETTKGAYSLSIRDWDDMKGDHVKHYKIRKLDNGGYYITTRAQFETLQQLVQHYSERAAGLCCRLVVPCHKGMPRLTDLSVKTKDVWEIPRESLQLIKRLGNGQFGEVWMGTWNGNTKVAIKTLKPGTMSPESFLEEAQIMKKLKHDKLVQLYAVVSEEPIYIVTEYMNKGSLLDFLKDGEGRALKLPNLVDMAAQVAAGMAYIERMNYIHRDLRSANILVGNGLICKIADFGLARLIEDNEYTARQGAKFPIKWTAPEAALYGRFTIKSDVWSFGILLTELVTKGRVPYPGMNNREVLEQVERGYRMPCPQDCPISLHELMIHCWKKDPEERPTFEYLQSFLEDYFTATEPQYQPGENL

[4] = target: T2, Phosphatidylinositol 4,5-bisphosphate 3-kinase catalytic subunit gamma isoform (Homo sapiens, UniProt P48736); assay: Inhibition of PI3Kgamma (unknown origin) using (poly [Glu, Tyr] 4:1) as substrate assessed as incorporation of 33P in substrate by [gamma33P] ATP-based kinase assay
T2 sequence (P48736 whole entry, canonical isoform): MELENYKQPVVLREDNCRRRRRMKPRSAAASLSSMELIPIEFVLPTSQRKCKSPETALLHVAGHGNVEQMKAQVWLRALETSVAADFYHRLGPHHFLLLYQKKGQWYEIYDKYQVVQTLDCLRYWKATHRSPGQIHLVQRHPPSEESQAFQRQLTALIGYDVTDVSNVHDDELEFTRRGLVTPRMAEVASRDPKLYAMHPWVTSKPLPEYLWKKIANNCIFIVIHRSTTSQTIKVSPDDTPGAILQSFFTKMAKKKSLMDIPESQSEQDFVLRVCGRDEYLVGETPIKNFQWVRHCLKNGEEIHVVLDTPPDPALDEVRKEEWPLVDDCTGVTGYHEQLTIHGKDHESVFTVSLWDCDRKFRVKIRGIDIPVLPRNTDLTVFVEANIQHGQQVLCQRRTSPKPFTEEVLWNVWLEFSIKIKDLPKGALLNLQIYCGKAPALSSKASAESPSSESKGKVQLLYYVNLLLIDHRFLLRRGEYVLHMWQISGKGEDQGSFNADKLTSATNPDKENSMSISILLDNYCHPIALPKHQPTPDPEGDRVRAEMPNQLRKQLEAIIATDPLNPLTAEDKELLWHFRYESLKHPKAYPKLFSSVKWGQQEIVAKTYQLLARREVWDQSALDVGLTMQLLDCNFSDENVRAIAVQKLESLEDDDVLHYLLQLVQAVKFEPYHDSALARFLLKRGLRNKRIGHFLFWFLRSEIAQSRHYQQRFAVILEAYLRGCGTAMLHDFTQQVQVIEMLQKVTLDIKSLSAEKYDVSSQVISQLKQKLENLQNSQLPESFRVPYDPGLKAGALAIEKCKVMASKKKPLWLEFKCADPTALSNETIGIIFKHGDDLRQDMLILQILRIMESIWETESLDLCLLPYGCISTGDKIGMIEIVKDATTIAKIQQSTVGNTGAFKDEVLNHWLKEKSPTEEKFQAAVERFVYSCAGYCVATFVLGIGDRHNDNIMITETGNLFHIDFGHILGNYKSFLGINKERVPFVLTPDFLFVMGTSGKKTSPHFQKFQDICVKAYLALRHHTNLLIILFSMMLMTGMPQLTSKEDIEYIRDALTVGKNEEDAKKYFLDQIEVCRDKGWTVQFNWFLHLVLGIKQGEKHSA

[5] = target: T3, Serine/threonine-protein kinase mTOR (Homo sapiens, UniProt P42345); assay: Inhibition of human mTOR using (poly [Glu, Tyr] 4:1) as substrate assessed as incorporation of 33P in substrate by [gamma33P] ATP-based kinase assay
[6] = target: Proto-oncogene tyrosine-protein kinase receptor Ret (Homo sapiens, UniProt P07949); assay: Inhibition of human RET using (poly [Glu, Tyr] 4:1) as substrate assessed as incorporation of 33P in substrate by [gamma33P] ATP-based kinase assay
[7] = target: Tyrosine-protein kinase ABL1 (Homo sapiens, UniProt P00519); assay: Inhibition of human ABL using (poly [Glu, Tyr] 4:1) as substrate assessed as incorporation of 33P in substrate by [gamma33P] ATP-based kinase assay
Sequence of Tyrosine-protein kinase ABL1 (P00519 whole entry, canonical isoform): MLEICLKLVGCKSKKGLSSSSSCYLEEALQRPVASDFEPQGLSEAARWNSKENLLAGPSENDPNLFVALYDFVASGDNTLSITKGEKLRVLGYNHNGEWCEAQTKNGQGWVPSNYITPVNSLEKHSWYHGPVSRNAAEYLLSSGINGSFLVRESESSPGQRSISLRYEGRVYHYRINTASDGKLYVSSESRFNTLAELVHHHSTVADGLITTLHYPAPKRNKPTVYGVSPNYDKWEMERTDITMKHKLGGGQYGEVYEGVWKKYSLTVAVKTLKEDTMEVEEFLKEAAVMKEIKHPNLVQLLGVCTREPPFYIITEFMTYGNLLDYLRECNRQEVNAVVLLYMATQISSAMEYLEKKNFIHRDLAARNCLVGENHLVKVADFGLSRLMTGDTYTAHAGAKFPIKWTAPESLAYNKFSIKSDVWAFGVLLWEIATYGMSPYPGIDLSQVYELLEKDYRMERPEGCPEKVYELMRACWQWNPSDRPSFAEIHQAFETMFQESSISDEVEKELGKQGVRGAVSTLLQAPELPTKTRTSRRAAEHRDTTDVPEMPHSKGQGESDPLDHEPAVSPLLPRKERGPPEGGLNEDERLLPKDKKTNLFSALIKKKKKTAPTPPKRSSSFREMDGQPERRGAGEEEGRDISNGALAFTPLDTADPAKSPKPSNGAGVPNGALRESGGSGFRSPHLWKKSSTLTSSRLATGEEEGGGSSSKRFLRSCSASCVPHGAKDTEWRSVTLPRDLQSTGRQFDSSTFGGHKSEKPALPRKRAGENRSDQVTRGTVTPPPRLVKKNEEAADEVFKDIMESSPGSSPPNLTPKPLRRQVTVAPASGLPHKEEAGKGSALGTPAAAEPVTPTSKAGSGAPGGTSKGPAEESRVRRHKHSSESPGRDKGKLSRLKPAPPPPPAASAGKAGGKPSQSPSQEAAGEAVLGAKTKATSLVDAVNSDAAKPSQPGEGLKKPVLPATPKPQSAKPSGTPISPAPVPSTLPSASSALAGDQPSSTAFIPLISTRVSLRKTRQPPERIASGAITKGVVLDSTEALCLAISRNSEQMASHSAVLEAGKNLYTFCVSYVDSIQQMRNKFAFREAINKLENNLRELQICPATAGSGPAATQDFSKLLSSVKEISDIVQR

[8] = target: T4, Phosphatidylinositol 4,5-bisphosphate 3-kinase catalytic subunit alpha isoform (Homo sapiens, UniProt P42336); assay: Inhibition of PI3Kalpha (unknown origin) using (poly [Glu, Tyr] 4:1) as substrate assessed as incorporation of 33P in substrate by [gamma33P] ATP-based kinase assay
T4 sequence (P42336 whole entry, canonical isoform): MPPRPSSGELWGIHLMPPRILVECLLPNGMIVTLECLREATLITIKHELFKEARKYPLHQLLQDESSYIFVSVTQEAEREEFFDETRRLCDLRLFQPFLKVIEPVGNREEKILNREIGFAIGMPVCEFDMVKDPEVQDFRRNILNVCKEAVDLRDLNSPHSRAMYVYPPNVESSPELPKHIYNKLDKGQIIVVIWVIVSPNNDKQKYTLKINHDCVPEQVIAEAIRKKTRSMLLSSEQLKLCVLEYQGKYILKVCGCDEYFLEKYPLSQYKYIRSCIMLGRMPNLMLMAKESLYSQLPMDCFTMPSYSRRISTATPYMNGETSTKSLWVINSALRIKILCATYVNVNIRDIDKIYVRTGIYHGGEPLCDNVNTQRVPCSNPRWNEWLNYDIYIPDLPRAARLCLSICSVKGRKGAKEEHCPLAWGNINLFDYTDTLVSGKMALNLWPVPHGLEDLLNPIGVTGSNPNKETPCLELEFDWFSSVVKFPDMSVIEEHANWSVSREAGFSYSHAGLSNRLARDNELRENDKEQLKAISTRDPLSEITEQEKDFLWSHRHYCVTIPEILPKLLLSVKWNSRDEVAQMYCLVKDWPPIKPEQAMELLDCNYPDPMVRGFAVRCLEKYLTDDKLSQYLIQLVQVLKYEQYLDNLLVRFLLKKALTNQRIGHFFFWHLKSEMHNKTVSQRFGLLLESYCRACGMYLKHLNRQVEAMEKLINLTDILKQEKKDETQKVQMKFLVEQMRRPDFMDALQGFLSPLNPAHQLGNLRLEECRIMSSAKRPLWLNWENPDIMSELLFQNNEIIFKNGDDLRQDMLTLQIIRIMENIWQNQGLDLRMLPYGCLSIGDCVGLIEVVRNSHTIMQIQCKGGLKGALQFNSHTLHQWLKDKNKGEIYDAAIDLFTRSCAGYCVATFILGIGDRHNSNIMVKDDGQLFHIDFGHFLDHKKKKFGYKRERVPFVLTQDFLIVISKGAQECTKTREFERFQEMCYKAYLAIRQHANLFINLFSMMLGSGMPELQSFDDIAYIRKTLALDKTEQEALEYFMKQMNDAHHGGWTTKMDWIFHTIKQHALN

[9] = target: Platelet-derived growth factor receptor alpha (Homo sapiens, UniProt P16234); assay: Inhibition of human PDGFRalpha using (poly [Glu, Tyr] 4:1) as substrate assessed as incorporation of 33P in substrate by [gamma33P] ATP-based kinase assay
[10] = target: Mast/stem cell growth factor receptor Kit (Homo sapiens, UniProt P10721); assay: Inhibition of human KIT using (poly [Glu, Tyr] 4:1) as substrate assessed as incorporation of 33P in substrate by [gamma33P] ATP-based kinase assay
[11] = target: Tyrosine-protein kinase Blk (Homo sapiens, UniProt P51451); assay: Inhibition of human BLK using (poly [Glu, Tyr] 4:1) as substrate assessed as incorporation of 33P in substrate by [gamma33P] ATP-based kinase assay
[12] = target: T5, Phosphatidylinositol 4,5-bisphosphate 3-kinase catalytic subunit beta isoform (Homo sapiens, UniProt P42338); assay: Inhibition of PI3Kbeta (unknown origin) using (poly [Glu, Tyr] 4:1) as substrate assessed as incorporation of 33P in substrate by [gamma33P] ATP-based kinase assay
T5 sequence (P42338 whole entry, canonical isoform): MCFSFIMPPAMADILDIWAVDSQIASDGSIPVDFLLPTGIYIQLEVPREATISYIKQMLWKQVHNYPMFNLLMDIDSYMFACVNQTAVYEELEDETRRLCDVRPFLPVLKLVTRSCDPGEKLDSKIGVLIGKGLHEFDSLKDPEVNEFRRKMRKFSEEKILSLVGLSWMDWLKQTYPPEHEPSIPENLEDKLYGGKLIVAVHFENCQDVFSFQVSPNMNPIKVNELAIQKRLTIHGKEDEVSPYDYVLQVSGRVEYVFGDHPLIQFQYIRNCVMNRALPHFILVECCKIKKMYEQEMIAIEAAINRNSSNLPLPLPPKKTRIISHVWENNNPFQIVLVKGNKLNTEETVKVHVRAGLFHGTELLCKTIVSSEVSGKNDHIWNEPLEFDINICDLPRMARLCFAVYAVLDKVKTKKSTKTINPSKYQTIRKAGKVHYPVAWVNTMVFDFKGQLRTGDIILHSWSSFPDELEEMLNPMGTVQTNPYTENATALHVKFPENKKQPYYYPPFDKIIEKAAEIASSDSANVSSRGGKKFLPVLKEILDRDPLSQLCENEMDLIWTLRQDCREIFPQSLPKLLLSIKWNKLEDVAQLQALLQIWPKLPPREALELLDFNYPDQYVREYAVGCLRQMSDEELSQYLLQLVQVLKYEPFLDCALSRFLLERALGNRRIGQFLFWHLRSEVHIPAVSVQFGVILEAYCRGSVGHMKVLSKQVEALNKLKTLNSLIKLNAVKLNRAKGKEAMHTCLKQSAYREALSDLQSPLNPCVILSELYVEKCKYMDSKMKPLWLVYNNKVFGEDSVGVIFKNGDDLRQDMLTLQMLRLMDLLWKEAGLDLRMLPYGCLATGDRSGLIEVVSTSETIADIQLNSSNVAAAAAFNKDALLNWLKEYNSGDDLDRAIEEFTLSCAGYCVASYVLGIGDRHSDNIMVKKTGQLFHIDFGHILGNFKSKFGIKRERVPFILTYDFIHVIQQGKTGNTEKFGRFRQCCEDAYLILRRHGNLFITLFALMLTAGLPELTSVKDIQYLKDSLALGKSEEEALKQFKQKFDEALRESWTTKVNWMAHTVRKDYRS

[13] = target: Proto-oncogene tyrosine-protein kinase Src (Homo sapiens, UniProt P12931); assay: Inhibition of human SRC using (poly [Glu, Tyr] 4:1) as substrate assessed as incorporation of 33P in substrate by [gamma33P] ATP-based kinase assay
[14] = target: Tyrosine-protein kinase Yes (Homo sapiens, UniProt P07947); assay: Inhibition of human YES using (poly [Glu, Tyr] 4:1) as substrate assessed as incorporation of 33P in substrate by [gamma33P] ATP-based kinase assay
[15] = target: T1, Phosphatidylinositol 4,5-bisphosphate 3-kinase catalytic subunit delta isoform; assay: Inhibition of PI3Kdelta (unknown origin) using PIP2 as substrate by HTRF assay
[16] = Cell cycle arrest in human PC3 cells assessed as increase in G0/G1 population after 24 hrs by Hoechst 33342 staining-based fluorescence analysis; type: functional; settings: PC-3
[17] = tested on: MCF7; assay: Cell cycle arrest in human MCF7 cells assessed as increase in G0/G1 population after 24 hrs by Hoechst 33342 staining-based fluorescence analysis; type: functional
[18] = tested on: MDA-MB-231; assay: Cell cycle arrest in human MDA-MB-231 cells assessed as increase in G0/G1 population after 24 hrs by Hoechst 33342 staining-based fluorescence analysis; type: functional
[19] = target: T2, Phosphatidylinositol 4,5-bisphosphate 3-kinase catalytic subunit gamma isoform; assay: Inhibition of PI3Kgamma (unknown origin) using PIP2 as substrate by HTRF assay
[20] = target: T4, Phosphatidylinositol 4,5-bisphosphate 3-kinase catalytic subunit alpha isoform; assay: Inhibition of PI3Kalpha (unknown origin) using PIP2 as substrate by HTRF assay
[21] = tested on: MDA-MB-231; assay: Cytotoxicity against human MDA-MB-231 cells after 5 days by Presto blue reagent-based spectrofluorometric analysis; type: functional, cell-based; settings: MDA-MB-231, 120 h
[22] = target: DNA-dependent protein kinase catalytic subunit (Homo sapiens, UniProt P78527); assay: Inhibition of human DNA-PK using (poly [Glu, Tyr] 4:1) as substrate assessed as incorporation of 33P in substrate by [gamma33P] ATP-based kinase assay
[23] = Cytotoxicity against human PC3 cells after 5 days by Presto blue reagent-based spectrofluorometric analysis; type: functional, cell-based; settings: PC-3, 120 h
[24] = target: Epithelial discoidin domain-containing receptor 1 (Homo sapiens, UniProt Q08345); assay: Inhibition of human DDR1 using (poly [Glu, Tyr] 4:1) as substrate assessed as incorporation of 33P in substrate by [gamma33P] ATP-based kinase assay
[25] = target: T5, Phosphatidylinositol 4,5-bisphosphate 3-kinase catalytic subunit beta isoform; assay: Inhibition of PI3Kbeta (unknown origin) using PIP2 as substrate by HTRF assay
[26] = target: T3, Serine/threonine-protein kinase mTOR; assay: Inhibition of recombinant human mTOR by LanthaScreen Kinase assay

Nc1ncnc2c1c(-c1cnc3[nH]ccc3c1)nn2CC1OCCO1
Activity [1]: Active

COC(Cn1nc(-c2ccc3oc(N)nc3c2)c2c(N)ncnc21)OC
pIC50 [2]: 6.30 | pIC50 [3]: < 4.00 | pIC50 [4]: 7.00 | pIC50 [5]: 7.60 | pIC50 [6]: < 4.00 | pIC50 [7]: 5.00 | pIC50 [8]: 6.52 | pIC50 [9]: < 4.00 | pIC50 [10]: < 4.00 | pEC50 [1]: 8.17 | pIC50 [11]: < 4.00 | pIC50 [12]: 5.25 | pIC50 [13]: < 4.00 | pIC50 [14]: < 4.00

Nc1nc2cc(-c3nn(CC4CCCC4)c4ncnc(N)c34)ccc2o1
pIC50 [15]: 8.14 | Activity [16]: Active | Activity [17]: Active | Activity [18]: Active | pIC50 [19]: 8.30 | pIC50 [20]: 8.46 | pEC50 [1]: 8.77 | pEC50 [21]: 7.92 | pIC50 [22]: 8.52 | pEC50 [23]: 8.40 | pIC50 [24]: 8.33 | pIC50 [25]: 7.05 | pIC50 [26]: 8.74
